Laboratory results as given in patent US10632195B2, “Pharmaceutical device for electric-field assisted administration of Tapentadol and method of administering Tapentadol with same” (Gruenenthal GmbH, priority 2012, dated 2020).

Experiments:
[1] = preliminary clinical trials: serum concentration and pain treating effect (visual analog scale); format: in vivo, human
Text: Low serum concentrations of Tapentadol suffice to show an effect in individuals that are relatively sensitive and higher serum concentrations of Tapentadol are needed to show an effect in persons that are relatively unsensitive.

[2] = HPLC purity of Tapentadol in exhausted hydrogel after electric-field-assisted administration (example 4); format: physicochemical
[3] = electrophoretic transdermal delivery from hydrogel formulations in device according to FIG. 1 (examples 2a, 2b, 2c; passive comparative example 2a); format: in vitro ADME, mouse; conditions: for total amount of Tapentadol permeated, electrophoretic delivery: after 24 hours, 60 s pulses after 1.5 and 16.5 hours
Text: The rate of electrophoretic transdermal delivery of three different exemplary Tapentadol hydrochloride containing hydrogel formulations A, B and C has been investigated in example 2a, 2b and 2c. Further, the rate of passive transdermal delivery of a corresponding Tapentadol hydrochloride containing hydrogel formulation has been investigated in a comparative experiment 2a.
(§1) The linearity of the method was verified by calibration with an aqueous solution of Tapentadol hydrochloride.
The hydrogel formulation B has been placed in an electrophoretic transdermal delivery system according to FIG. 1. The following components were used for preparing the electrophoretic device according to FIG. 1:
silver electrodes as pair of electrodes consisting of an active electrode (1a) and a counter electrode (2a) (silver gauze, 1024 mesh/cm^2, 0.12 wire diameter, 99.9% Ag, 18 mm diameter), a foam ring (9) (Alveolit TA 1001 005 White, 95 kg/m^3, 22 mm outer diameter, 16 mm inner diameter), hydrogel formulation B as drug reservoir (3), a teflon ring as barrier material (10) (thickness 1 mm, outer diameter 16 mm, inner diameter 11 mm), silicone adhesive Bio PSA-7 4502 as adhesive layer (4a), which has been in contact with a removable protective layer prior to use (transparent PETP foil manufactured by 3M®, 74 μm, with one-side fluorination, 22 mm diameter), acrylate adhesive DuroTAK 387-2054 as a second adhesive layer (8), a PET foil as surface layer (7) (Loparex PET foil, 75 μm, 105 g/m^2, 22 mm diameter).
Two wires were soldered to the electrodes and connected to a conventional current source as electric power source (6a) (Voltakraft® laboratory power supply DIGI 35).
Transdermal delivery experiments across mouse skin have been performed after two short current pulses (2 V) have been applied for 2 s after 1.5 hour and for 2 s after 16.5 hours.
For comparison, the hydrogel formulation B or A has been placed in an electrophoretic transdermal delivery system according to FIG. 1 and passive transdermal delivery experiments to mouse skin have been performed, i.e. no electric current has been applied to these systems (passive control experiments). This experiment has been performed twice for formulation B (compB-1 and compB-2) and once in case of formulation A (compA) (comparative example 2a) as indicated in FIG. 4 and FIG. 5.
The hydrogel formulation B has been placed in an electrophoretic transdermal delivery system according to FIG. 1 comprising the same components as used for example 2a and comparative example 2a.
Transdermal delivery experiments across mouse skin have been performed after two current pulses have been applied. […]

[4] = combined electrophoretic and iontophoretic transdermal delivery from hydrogel formulation C in device according to FIG. 3 (examples 3a, 3b, 3c); format: in vitro ADME, mouse
Text: The rate of combined iontophoretic and electrophoretic transdermal delivery of aTapentadol hydrochloride containing hydrogel formulation has been investigated in examples 3a, 3b and 3c.
as §1
The hydrogel formulation C (as described in example 2a) has been placed in a combined electrophoretic and iontophoretic device according to FIG. 3. The following components were used for preparing the inventive electrophoretic and iontophoretic device according to FIG. 3:
silver electrodes as pair of electrodes consisting of an active electrode (1a) and a counter electrode (2a) (silver gauze, 1024 mesh/cm^2, 0.12 wire diameter, 99.9% Ag, 18 mm diameter and 14 mm diameter, respectively), an additional silver ring electrode as an auxiliary electrode (silver gauze, 1024 mesh/cm^2, 0.12 wire diameter, 99.9% Ag, 20 mm outer diameter and 16 mm inner diameter, respectively), a hydrogel formulation (comprising 2.5%-wt. Klucel® HF and 0.1%-wt. sodium chloride, having a pH value of 7.0) as additional reservoir (15) being in contact with the silver ring electrode, a foam ring as (9) (Alveolit TA 1001 005 White, 95 kg/m^3, 24 mm outer diameter, 20 mm inner diameter), hydrogel formulation C as drug reservoir (3), teflon ring as barrier material (10) (thickness 1 mm, outer diameter 16 mm, inner diameter 11 mm and, thickness 0.5 mm, outer diameter 20 mm, inner diameter 16 mm, respectively), silicone adhesive Bio PSA-7 4502 as adhesive layer (4a), which has been in contact with a removable protective layer prior to use (transparent PETP foil manufactured by 3M®, 74 μm, with one-side fluorination, 24 mm diameter), acrylate adhesive DuroTAK 387-2054 as a second adhesive layer (8), a PET foil as surface layer (7) (Loparex PET foil, 75 μm, 105 g/m^2, 24 mm diameter).
Three wires were soldered to the electrodes and connected to a conventional current source as electric power source (6a) (Voltakraft® laboratory power supply DIGI 35).
A transdermal delivery experiment across mouse skin has been performed. In the first electrophoretic phase, only the silver electrodes as pair of electrodes consisting of an active electrode (1a) and a counter electrode (2a) were connected to the current supply. After application of 2.5 hours a single pulse having a pulse length of 60 s at a constant voltage of 3 V has been applied. After application of said pulse both electrodes were disconnected from the voltage generator. In the second iontophoretic phase following the electrophoretic phase, the counter electrode (2a) of the electrophoretically used pair of silver electrodes (1a and 2a) is used as an active electrode (1b) and the additional silver ring electrode is used a counter electrode (2b). A single pulse having a pulse length of 60 s at a constant voltage of 3 V has been applied in the iontophoretic phase.
The hydrogel formulation C (as described in example 2a) has been placed in a combined electrophoretic and iontophoretic device according to FIG. 3. The same components were used for preparing the inventive combined electrophoretic and iontophoretic device as described in example 3a.
Three transdermal delivery experiments (E-1, E2 and E3 as example 3b) to mouse skin have been performed in order to directly assess differences between a solely electrophoretic transdermal delivery and a combined electrophoretic and iontophoretic transdermal delivery as indicated in FIG. 13 and FIG. 14: […]

[5] = exhausted hydrogel of F-3 of example 3c, HPLC

## CC[C@@H](c1cccc(O)c1)[C@@H](C)CN(C)C [Tapentadol, (−)-(1R,2R)-3-(3-dimethyl-amino-1-ethyl-2-methyl-propyl)-phenol]
[1]; at serum concentration of about 5 ng·ml-1
  visual analog scale (VAS) in a population mean: approximately −2 mm
[1]; at serum concentration of about 300 ng·ml-1
  visual analog scale (VAS) in a population mean: approximately −15 mm
[2]; during electric-field administration of the device
  electrically induced degradation of Tapentadol: does not induce a significant degradation
[2]; [5]
  Tapentadol content: 95.3%
  sum of impurities: 4.7%
[3]; B-5: formulation B, 2 V
  total amount of Tapentadol permeated, electrophoretic delivery: more than 300 μg/cm^2
[3]; C-3: formulation C, 5 V
  total amount of Tapentadol permeated, electrophoretic delivery: 670 μg/cm^2
[3]; hydrogel formulation B, example 2a (2 V pulses of 2 s after 1.5 and 16.5 hours) vs comparative example 2a, from FIG. 4
  increase of cumulative skin permeation by electrophoresis versus passive delivery: 5-10 fold
[3]; over 24 hours of administration, examples 2a, 2b and 2c
  Tapentadol remaining within the transdermal delivery system: about 90 wt.-%
[4]; E-2, after 18 hours compared to the maximum at about 6 hours
  fall-off of the drug flux: about 50%
[4]; after 24 hours, D-1: formulation C, 60 s 3 V electrophoretic pulse after 2.5 hours then 60 s 3 V iontophoretic pulse, mouse skin probably injured
  total amount of Tapentadol permeated, combined electrophoretic and iontophoretic delivery: 430 μg/cm^2
[4]; after 24 hours, E-2: formulation C, four 60 s 3 V electrophoretic pulses (0, 15.75, 18, 20.75 h)
  total amount of Tapentadol permeated, electrophoretic delivery: more than 700 μg/cm^2
[4]; after 24 hours, E-3: formulation C, four 60 s 3 V electrophoretic pulses (0, 15.75, 18, 20.75 h) each followed by 9 V iontophoretic pulse
  total amount of Tapentadol permeated, combined electrophoretic and iontophoretic delivery: more than 800 μg/cm^2
[4]; after 24 hours, F-3: formulation C, four 60 s 4 V electrophoretic pulses (0, 2.5, 5.5, 21.5 h) each followed by 9 V iontophoretic pulse
  total amount of Tapentadol permeated, combined electrophoretic and iontophoretic delivery: about 1500 μg/cm^2
